Experimental data from US11471442B2, “Administration of gut-selective JAK3 inhibitor” (THERAVANCE BIOPHARMA R&D IP, LLC, priority 2020, dated 2022).
Like-named read-outs stand apart in the source and are kept apart here.

Assays:
[1] = Phase 1 SAD (Part A) plasma and urine pharmacokinetics in healthy subjects; assay type: in vivo, human; conditions: for AUC(0-inf) / Cmax / Tmax / half-life: human, plasma; for Tmax: read-out: Tmax, median (min, max); for half-life: read-out: t1/2, mean (SD) (converted)
Experimental: (§1) The plasma PK parameters of the compound of formula (I) calculated following single (Part A) or multiple (Parts B) oral doses.
In each cohort, healthy subjects meeting eligibility criteria were sequentially randomized in a 3:1 ratio to receive either the compound of formula (I) or matching placebo. Study drug was administered orally as a single dose on the morning of Day 1 following an overnight fast of at least 9.5 hours. Subjects were dosed in an upright (i.e., seated or standing) position and remained upright for 5 minutes following dosing prior to performing study procedures which require a posture change. Subjects were to remain fasted, except water, until after the 4-hour post-dose assessments were completed and the 4-hour post dose PK sample was collected. PK sampling for the compound of formula (I) in plasma and urine were taken Day 1 pre-dose and for 72 hours post-dose.
(§2) For all subjects, blood samples for the determination of plasma concentration of the compound of formula (I) were collected at scheduled time points. Blood samples were analyzed to calculate different plasma PK parameters in both part A and part B.
Urine samples for the determination of concentration of the compound of formula (I) were collected at various posedose intervals only in part A.
(§3) For all PK data analyses, the PK analysis set was used. Individual subject and mean plasma drug concentration versus time curves for the compound of formula (I) were presented for each dose group. Summary statistics (mean, standard deviation, coefficient of variation, median, minimum, maximum, geometric mean, geometric coefficient of variation, number of subjects) were calculated for plasma concentrations at each time point for each dose group, and the PK parameters for each dose group. Urine PK parameters were summarized for exploratory purposes.

[2] = test system: splenic NK cell counts; experiment: Immunosuppression model in mice (splenic NK cell counts); assay type: in vivo; conditions: same or higher doses than required for efficacy in the oxazolone model
Source text: (§4) Oxazolone-induced colitis is an experimental model that has a histological resemblance to human ulcerative colitis.

[3] = Phase 1 multiple ascending dose (MAD, Part B) safety and tolerability in healthy subjects; assay type: in vivo, human; conditions: for Most frequent TEAEs: Acne / Most frequent TEAEs: Dizziness / Most frequent TEAEs: Headache / Most frequent TEAEs: Pain in extremity / Subjects with TEAEs: Any TEAE / Subjects with TEAEs: Moderate or severe TEAE / Subjects with TEAEs: Serious TEAE / Subjects with TEAEs: TEAE leading to discontinuation / Total number of TEAEs: MAD, n = 6
Source text: This clinical study was the first in human study of a compound of formula (I). The purpose of this study was to assess the safety, tolerability and pharmacokinetics (PK) of the compound of formula (I) through single ascending dose administration (Part A) and multiple dose administrations (Part B) in healthy subjects.
The number and severity of treatment emergent adverse events (TEAE5) following single (Part A) or multiple (Parts B) oral doses of the compound of formula (I) and matching placebo, and changes in safety laboratory assessments, vital signs, and ECGs.
24 healthy, adult male and female subjects were enrolled in Part B. […] cohorts (B1 to B3) of 8 healthy subjects (6 active and 2 placebo) were evaluated.
In each cohort, healthy subjects meeting eligibility criteria were sequentially randomized in a 3:1 ratio to receive either the compound of formula (I) or placebo BID, each morning and evening (approximately 12 hours following the morning dose) for 10 consecutive days of dosing, except for Day 10 where subjects were only received a morning dose. Subjects were dosed in an upright (i.e., seated or standing) position and remained upright for 5 minutes after dosing before a posture change for other study procedures, if applicable. Subjects fasted overnight for at least 9.5 hours prior to morning dose on Day 1 and Day 10. Subjects continued the fast for at least 4 hours post morning dose on these days. For all other morning doses and for all evening doses (i.e., Day 1 evening and Days 2 to 9), subjects were required to fast for at least 2 hours prior and for at least 2 hours following the dose.
Safety was determined by evaluating physical examinations, vital signs, safety 12-lead electrocardiograms (ECGs) monitoring, clinical laboratory tests, and adverse events (AEs). For procedures scheduled to be performed at common times, collection of PK samples was collected as close as possible to the designated time. The cardiodynamic recordings via ECG extractions from the Holter monitor were conducted as close as possible prior to the corresponding PK sampling. Vital signs, followed by safety ECGs, were be taken before the PK sampling (or before the cardiodynamic sampling if scheduled at the same time), unless PK samples were late as a result in which case vital signs were taken following the PK sampling.
Safety analyses were performed using the Safety analysis set. Safety variables include vital signs, adverse events, clinical laboratory results (hematology, chemistry, coagulation, and urinalysis), and ECG parameters, such as Friderica's corrected QT interval (QTcF), PR interval, QT interval, QRS interval, and heart rate, from standard safety digital ECGs. Vital signs were summarized in terms of observed values and changes from baseline.

[4] = Caco-2 permeation assay; assay type: in vitro ADME; conditions: human, read-out: Kp (permeability)
[5] = Phase 1 pharmacokinetics across all SAD and MAD cohorts; assay type: in vivo; conditions: human, plasma, oral
Experimental: as §1, §2, §3

[6] = Colon and plasma mouse pharmacokinetics; assay type: in vivo
[7] = test system: oxazolone-induced colitis model in mice; experiment: Oxazolone-induced colitis model in mice; assay type: in vivo
Source text: as §4

[8] = single oral dose 1000 mg, n = 6
[9] = single oral dose 2000 mg, n = 6

CN(C)C/C=C/C(=O)N1CC(COc2cc(-c3ccc(O)cc3)cc3[nH]ncc23)C1 [compound of formula (I)]
dose proportionality of exposure (AUC and Cmax) ([1]; across the studied single-dose range): slightly less than dose proportional
Urinary excretion, average ([1]; all single-dose levels): < 0.1%
AUC(0-inf) ([1]; both sexes, oral, part A (SAD), 100 to 2000 mg, read-out: AUC0-inf in the plasma of the subjects (range)): 2.7 to 172 ng·h/mL
AUC(0-inf) ([1]; both sexes, oral, part A (SAD), 100 to 2000 mg, read-out: average AUC0-inf): 8.38 to 96 ng·h/mL
Cmax ([1]; both sexes, oral, single dose of 2000 mg, read-out: average Cmax): 10 ng/mL
AUC(0-inf) ([1]; po, 100 mg, single oral dose 100 mg, n = 6, read-out: AUCinf, mean (SD)): 8.4 ng·h/mL
AUC(0-inf) ([1]; po, 300 mg, single oral dose 300 mg, n = 6, read-out: AUCinf, mean (SD)): 24.6 ng·h/mL
AUC(0-inf) ([1]; po, 1000 mg, single oral dose 1000 mg, one subject excluded, read-out: AUCinf, mean (SD)): 47 ng·h/mL
AUC(0-inf) ([1]; po, 2000 mg, single oral dose 2000 mg, n = 6, read-out: AUCinf, mean (SD)): 96 ng·h/mL
Cmax ([1]; single oral dose 100 mg, n = 6, read-out: Cmax, mean (SD)): 1.3 ng/mL
Tmax ([1]; single oral dose 100 mg, n = 6): 1 h
half-life ([1]; single oral dose 100 mg, n = 6): 17.5 h
Cmax ([1]; single oral dose 300 mg, n = 6, read-out: Cmax, mean (SD)): 3.4 ng/mL
Tmax ([1]; single oral dose 300 mg, n = 6): 1 h
half-life ([1]; single oral dose 300 mg, n = 6): 14.5 h
Cmax ([1]; single oral dose 1000 mg, n = 6, read-out: Cmax, mean (SD)): 4.8 ng/mL
Tmax [1, 8]: 1 h
half-life ([1]; single oral dose 1000 mg, one subject excluded): 16.6 h
Cmax ([1]; single oral dose 2000 mg, n = 6, read-out: Cmax, mean (SD)): 10.1 ng/mL
Tmax [1, 9]: 2 h
half-life [1, 9]: 16.6 h
Plasma concentrations ([1]; single oral doses up to 2000 mg): < 35 ng/mL
fe0-72 (percentage of dose excreted in urine over 0 to 72 hours), mean (SD) ([1]; single oral dose 100 mg, n = 6): 0.10 (0.051) %
fe0-72 (percentage of dose excreted in urine over 0 to 72 hours), mean (SD) ([1]; single oral dose 300 mg, n = 6): 0.082 (0.025) %
fe0-72 (percentage of dose excreted in urine over 0 to 72 hours), mean (SD) [1, 8]: 0.056 (0.025) %
fe0-72 (percentage of dose excreted in urine over 0 to 72 hours), mean (SD) [1, 9]: 0.063 (0.028) %
splenic NK cell counts [2]: unaffected
serious AEs ([3]; MAD cohorts): No serious AEs
severity of reported treatment-emergent AEs ([3]; MAD cohorts): mild
changes from predose baseline in laboratory assessments (lipid, coagulation, hematology), vital signs or ECGs ([3]; MAD cohorts, any time point postdose): No clinically significant changes
Most frequent TEAEs: Acne ([3]; 100 mg BID oral for 10 days): 1 (17)
Most frequent TEAEs: Dizziness ([3]; 100 mg BID oral for 10 days): 2 (33)
Most frequent TEAEs: Headache ([3]; 100 mg BID oral for 10 days): 2 (33)
Most frequent TEAEs: Pain in extremity ([3]; 100 mg BID oral for 10 days): 1 (17)
Subjects with TEAEs: Any TEAE ([3]; 100 mg BID oral for 10 days): 5 (83)
Subjects with TEAEs: Moderate or severe TEAE ([3]; 100 mg BID oral for 10 days): 0
Subjects with TEAEs: Serious TEAE ([3]; 100 mg BID oral for 10 days): 0
Subjects with TEAEs: TEAE leading to discontinuation ([3]; 100 mg BID oral for 10 days): 0
Total number of TEAEs ([3]; 100 mg BID oral for 10 days): 11
Most frequent TEAEs: Acne ([3]; 300 mg BID oral for 10 days): 0
Most frequent TEAEs: Dizziness ([3]; 300 mg BID oral for 10 days): 0
Most frequent TEAEs: Headache ([3]; 300 mg BID oral for 10 days): 0
Most frequent TEAEs: Pain in extremity ([3]; 300 mg BID oral for 10 days): 0
Subjects with TEAEs: Any TEAE ([3]; 300 mg BID oral for 10 days): 1 (17)
Subjects with TEAEs: Moderate or severe TEAE ([3]; 300 mg BID oral for 10 days): 0
Subjects with TEAEs: Serious TEAE ([3]; 300 mg BID oral for 10 days): 0
Subjects with TEAEs: TEAE leading to discontinuation ([3]; 300 mg BID oral for 10 days): 0
Total number of TEAEs ([3]; 300 mg BID oral for 10 days): 9
Most frequent TEAEs: Acne ([3]; 1000 mg BID oral for 10 days): 0
Most frequent TEAEs: Dizziness ([3]; 1000 mg BID oral for 10 days): 0
Most frequent TEAEs: Headache ([3]; 1000 mg BID oral for 10 days): 0
Most frequent TEAEs: Pain in extremity ([3]; 1000 mg BID oral for 10 days): 0
Subjects with TEAEs: Any TEAE ([3]; 1000 mg BID oral for 10 days): 0
Subjects with TEAEs: Moderate or severe TEAE ([3]; 1000 mg BID oral for 10 days): 0
Subjects with TEAEs: Serious TEAE ([3]; 1000 mg BID oral for 10 days): 0
Subjects with TEAEs: TEAE leading to discontinuation ([3]; 1000 mg BID oral for 10 days): 0
Total number of TEAEs ([3]; 1000 mg BID oral for 10 days): 0
tolerability ([3]; multiple doses up to 1000 mg BID for 10 days): generally well-tolerated
Papp [4]: < 5 ×10⁻⁶ cm/s
half-life ([5]; across all doses in the SAD and MAD cohorts, read-out: mean terminal elimination half-life): 15 to 20 h
Cmax ([5]; across all doses, read-out: highest observed Cmax): 34.3 ng/mL
Kp ([6]; colon/plasma, mouse, oral administration, read-out: ratio of exposure in the colon to exposure in plasma): > 1250
permeability coefficient (Papp) ([6]; stated in the sentence on the colon and plasma mouse pharmacokinetics study): less than 10×10^−6 cm/sec
activity in the oxazolone-induced colitis model [7]: demonstrated activity
